Laboratory results taken from patent publication US8093060B2, “Multisite phosphorylated peptide (protein) recognizing compound and detection method, imaging method, alzheimer's disease diagnosing method and reagent kit using the same” (Canon Kabushiki Kaisha, priority 2008, dated 2012).

Molecular target: T1, phosphorylated tau aggregate (Homo sapiens, UniProt P10636)
T1 construct: made in house; host or cells: Escherichia coli
Assay: Fluorescence titration of BODIPY-Zn(Dpa) against phosphorylated tau aggregate (EC50)
Assay type: binding
Method: BODIPY-Zn(Dpa) was titrated against a phosphorylated tau aggregate, a tau aggregate, and an amyloid β aggregate to obtain EC50 (a probe concentration at which a half value of the maximum change (ΔFmax) in fluorescence intensity is observed). BODIPY-Zn(Dpa) was titrated against an aggregate at a predetermined concentration (1 μg/mL), and changes in fluorescence intensity at each concentration (ΔF) were plotted. Using a solvent obtained by adding 10% DMSO and 100 μM Zn(NO3)2 to HBS (10 mM HEPES (pH 7.4), 150 mM NaCl), the solution was incubated at 37° C. for 30 min, and fluorescence was measured (excitation wavelength, 490 nm; fluorescence wavelength, 545 nm).

T1 sequence (P10636 1-441 isoform P10636-8): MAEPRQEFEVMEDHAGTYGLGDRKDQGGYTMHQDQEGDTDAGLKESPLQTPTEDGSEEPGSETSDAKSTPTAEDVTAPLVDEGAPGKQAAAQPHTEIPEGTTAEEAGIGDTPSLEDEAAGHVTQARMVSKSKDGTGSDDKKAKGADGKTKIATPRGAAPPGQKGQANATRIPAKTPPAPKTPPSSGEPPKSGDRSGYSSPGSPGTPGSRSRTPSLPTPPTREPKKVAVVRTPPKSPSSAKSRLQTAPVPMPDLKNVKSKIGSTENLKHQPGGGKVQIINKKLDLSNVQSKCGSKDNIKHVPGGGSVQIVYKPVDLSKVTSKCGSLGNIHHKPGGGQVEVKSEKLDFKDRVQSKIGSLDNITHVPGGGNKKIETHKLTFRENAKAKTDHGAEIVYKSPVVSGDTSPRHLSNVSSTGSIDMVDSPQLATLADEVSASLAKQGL

CC1=C(c2ccc(CN(C)Cc3ccccn3)nc2)C(C)=[N+]2C1=C(c1cc(OCCOCCOCCO)cc(OCCOCCOCCO)c1)c1c(C)c(-c3ccc(CN(C)Cc4ccccn4)nc3)c(C)n1[B-]2(F)F.O=[N+]([O-])[O-].O=[N+]([O-])[O-].O=[N+]([O-])[O-].O=[N+]([O-])[O-].[Zn+2].[Zn+2] [BODIPY-Zn(Dpa)]
EC50 (aggregate 1 μg/mL, 37° C., 30 min): 9.1 nM | affinity (EC50) for phosphorylated tau aggregate relative to amyloid β aggregate (higher than for the amyloid β aggregate): 70 times | affinity (EC50) for phosphorylated tau aggregate relative to tau aggregate (higher than for the tau aggregate): 9 times
